Results reported in ChEMBL document CHEMBL1201862, “PubChem BioAssay data set” (2004).
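48-hour exposure; five concentrations; linearly interpolated endpoints. Abbreviation: GI50, concentration required for 50% inhibition of growth.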 Activity calls are given as the source filed them. Rule as the data show it: active = GI50 up to about 1.1 µM and inactive = higher.

Columns and labels:
Experiment in all cases: NCI tumour cell line growth inhibition, 48 h
ACHN = test system: ACHN
BT-549 = test system: BT-549
DU-145 = test system: DU-145
HCT-116 = test system: HCT-116
HL-60 = test system: HL-60
HOP-62 = test system: HOP-62
HT-29 = test system: HT-29
IGROV-1 = test system: IGROV-1
KM12 = test system: KM12
LOX IMVI = test system: LOX IMVI
MCF7 = test system: MCF7
NCI-H23 = test system: NCI-H23
OVCAR-4 = test system: OVCAR-4
RPMI-8226 = test system: RPMI-8226
SF-295 = test system: SF-295
SK-MEL-2 = test system: SK-MEL-2
SNB-19 = test system: SNB-19
T47D = test system: T47D
UACC-62 = test system: UACC-62
UO-31 = test system: UO-31

Compound	GI50 (ACHN)	GI50 (BT-549)	GI50 (DU-145)	GI50 (HCT-116)	GI50 (HL-60)	GI50 (HOP-62)	GI50 (HT-29)	GI50 (IGROV-1)	GI50 (KM12)	GI50 (LOX IMVI)	GI50 (MCF7)	GI50 (NCI-H23)	GI50 (OVCAR-4)	GI50 (RPMI-8226)	GI50 (SF-295)	GI50 (SK-MEL-2)	GI50 (SNB-19)	GI50 (T47D)	GI50 (UACC-62)	GI50 (UO-31)
CC(=O)O[C@H]1CC[C@@]2(C)[C@@H](CC[C@@H]3[C@@H]2CC(=O)[C@@]2(C)[C@H]3C[C@@H]3CC(C)=CC(=O)[C@@H]32)C1	66.7 µM (inactive)	28.3 µM (inactive)	53.8 µM (inactive)	49.5 µM (inactive)	5.04 µM (inactive)	55.8 µM (inactive)	31 µM (inactive)	> 100 µM (inactive)	57 µM (inactive)	> 100 µM (inactive)	58.3 µM (inactive)	> 100 µM (inactive)	56.5 µM (inactive)	16 µM (inactive)	56.1 µM (inactive)	> 100 µM (inactive)	> 100 µM (inactive)	40 µM (inactive)	64.7 µM (inactive)	23.2 µM (inactive)
O=c1c2cc([N+](=O)[O-])cnc2sn1-c1ccc(Br)cc1	> 100 µM (inactive)	91.4 µM (inactive)	> 100 µM (inactive)	19.5 µM (inactive)	34.5 µM (inactive)	36.1 µM (inactive)	27.2 µM (inactive)	81.7 µM (inactive)	40.8 µM (inactive)	19.3 µM (inactive)	26 µM (inactive)	29.6 µM (inactive)	24.5 µM (inactive)	26.6 µM (inactive)	17.5 µM (inactive)	32.7 µM (inactive)	38.8 µM (inactive)	6.32 µM (inactive)	82.4 µM (inactive)	51.3 µM (inactive)
CCN(CC)C1CCC(C2c3cc4c(cc3OC(N3CCOCC3)C2C)OCO4)CC1 (stereo not given)	16.7 µM (inactive)	16.9 µM (inactive)	18.5 µM (inactive)	32.3 µM (inactive)	22.6 µM (inactive)	18.3 µM (inactive)	5.75 µM (inactive)	> 27.9 µM (inactive)	16.8 µM (inactive)	11.4 µM (inactive)	22.6 µM (inactive)	19.6 µM (inactive)	> 100 µM (inactive)	15.5 µM (inactive)	9.46 µM (inactive)	5.62 µM (inactive)	71.4 µM (inactive)	14.4 µM (inactive)	16.7 µM (inactive)	36.9 µM (inactive)
O=[N+]([O-])c1cccc2nc3ccccc3c(NCCCN3CCCCC3)c12	0.0139 µM (active)	0.0286 µM (active)	< 0.01 µM (active)	< 0.01 µM (active)	0.0252 µM (active)	0.0125 µM (active)	< 0.01 µM (active)	< 0.0104 µM (active)	0.014 µM (active)	0.0194 µM (active)	< 0.01 µM (active)	< 0.01 µM (active)	< 0.01 µM (active)	< 0.01 µM (active)	0.0146 µM (active)	0.0148 µM (active)	0.0233 µM (active)	0.0179 µM (active)	0.0151 µM (active)	0.0237 µM (active)
O=c1[nH]c(=S)[nH]c(-c2ccccc2)c1Cc1c(O)ccc2ccccc12 [CAMBINOL]	34 µM (inactive)	27.1 µM (inactive)	41.9 µM (inactive)	24.7 µM (inactive)	20.6 µM (inactive)	64 µM (inactive)	39.4 µM (inactive)	33.7 µM (inactive)	30.6 µM (inactive)	36.1 µM (inactive)	33 µM (inactive)	29.6 µM (inactive)	39.7 µM (inactive)	21.6 µM (inactive)	52 µM (inactive)	20.4 µM (inactive)	37.2 µM (inactive)	24.4 µM (inactive)	21 µM (inactive)	29.6 µM (inactive)
CC(=O)N1CCN(C23OC4(N5CCN(C(C)=O)CC5)C5C6CC(C7C6C4C72)C53)CC1 (stereo not given)	> 100 µM (inactive)	> 100 µM (inactive)	> 100 µM (inactive)	> 100 µM (inactive)	> 100 µM (inactive)	> 100 µM (inactive)	> 100 µM (inactive)	> 100 µM (inactive)	> 100 µM (inactive)	> 100 µM (inactive)	> 100 µM (inactive)	> 100 µM (inactive)	> 100 µM (inactive)	> 100 µM (inactive)	> 100 µM (inactive)	> 100 µM (inactive)	> 100 µM (inactive)	> 100 µM (inactive)	> 100 µM (inactive)	> 100 µM (inactive)
